Measured values: patent publication US11478451B1, “Macrocyclic chlorine substituted indole derivatives” (Bayer Aktiengesellschaft, priority 2017, dated 2022)
Counter-ions that a name gives are not always drawn. Like-named read-outs stand apart in the source and are kept apart here. Blank lines part the entries; values can stand above or below the molecule they belong to.

Experiments:
HMC-1-8 cells = test: Antiproliferation assay (CellTiter-Glo, 72 h), HMC-1-8; format: cell-based; details: IC50, median, HMC-1-8, 72 h, read-out: Antiproli HMC-1-8 [M] median
Protocol: (§1) Assessment of the Anti-Proliferative Effect of Compounds in Different Cell Lines
(§2) The impact of compounds on the proliferation of different cell lines was assessed using the CellTiter-Glo® Luminescent Cell Viability reagent from Promega (G7573).
(§3) In parallel, cells were plated in a reference (day 0) plate for time zero determination.
(§4) Rim wells were excluded. The cells were incubated for 72 h hours in a humidified incubator at 37° C. The day 0 plate was measured by adding 30 μL/well of CTG solution (CellTiter-Glo® Luminescent Cell Viability reagent, Promega G7573) to time zero wells in the reference plate followed by a 10 minutes incubation and luminescence reading at 0.1 ms. using the PHERAstar FS microplate reader (BMG Labtech).
(§5) After 72 h incubation, the treated plates were measured in the same way as the day 0 plate mentioned above.

SUDHL5 cells [1] = test: Induction of caspase-3/7 activity (Caspase-Glo 3/7), SUDHL5; format: cell-based; details: EC50, median, SUDHL5, 3 h treatment
Protocol: (§6) Induction of Caspase-3/7 Activity Upon Treatment of Cells with Selected Compounds
(§7) The BH3-domain of MCL-1 sequesters pro-apoptotic proteins, thereby inhibiting apoptosis. In contrast, MCL-1 inhibitors are expected to antagonize this effect leading to an increase in apoptosis, which can be determined by measuring the activity of caspase-3/7.
(§8) The activity of caspase-3/7 was determined in DLBCL (Diffuse large B-cell lymphoma) cell lines (SUDHL5 and SUDHL10) upon treatment with different compounds, using the Caspase-Glo® 3/7 reagent from Promega (G8092).
(§9) Rim wells were excluded. The cells were incubated for 3 h hours in a humidified incubator at 37° C.
(§10) For the evaluation of the results, the background measured with “medium-only” was subtracted from all other values.

SUDHL10 cells [2] = test: Induction of caspase-3/7 activity (Caspase-Glo 3/7), SUDHL10; format: cell-based; details: EC50, median, SUDHL10, 3 h treatment
Protocol: as §6, §7, §8, §9, §10

SUDHL5 cells [3] = test: Antiproliferation assay (CellTiter-Glo, 72 h), SUDHL5; format: cell-based; details: IC50, median, SUDHL5, 72 h, read-out: Antiproli SUDHL5 [M] (median)
Protocol: as §1, §2, §3, §4, §5

AMO-1 cells = test: Antiproliferation assay (CellTiter-Glo, 72 h), AMO-1; format: cell-based; details: IC50, median, AMO-1, 72 h, read-out: Antiproli AMO-1 [M] median
Protocol: as §1, §2, §3, §4, §5

SUDHL5 cells [4] = test: Induction of cytotoxicity (CellTiter-Glo, 5 h), SUDHL5; details: SUDHL5, 5 h
SUDHL10 cells [5] = test: Induction of cytotoxicity (CellTiter-Glo, 5 h), SUDHL10; details: SUDHL10, 5 h
Protocol: Therefore, cytotoxicity assays were run in parallel in SUDHL5 and SUDHL10 cells.
The different cell lines were plated in culture medium (RPMI 1640 [GIBCO #22400-089] supplemented with 10% Fetal Bovine Serum) at a density of 3,300 cells in 30 μL/well in a sterile, solid black, flat bottom, polystyrene, TC-treated 384-well microplate (Corning #3571) using Multidrop Combi Reagent Dispenser. As a control, medium without cells was also added to the plate. Cells were incubated in a humidified incubator at 37° C. overnight. […] Rim wells were excluded. The cells were incubated for 5 h hours in a humidified incubator at 37° C. After this incubation, 30 μL of CellTiter-Glo® Luminescent Cell Viability reagent (Promega, G7573) was added to each well using the Multidrop Combi Reagent Dispenser, followed by 15 min incubation on a shaker at room temperature. Finally, luminescence was read at 0.1 ms, with a gain of 3000 using the PHERAstar FS microplate reader (BMG Labtech).

[6] = read-out: Cytotox SUDHL5 [M] (median), IC50, median
[7] = read-out: Cytotox SUDHL10 [M] (median), IC50, median
[8] = Homo sapiens, SU-DHL-5, 5 h, read-out: Cytotox SUDHL5 [M] (median), IC50, median
[9] = Homo sapiens, SU-DHL10, 5 h, read-out: Cytotox SUDHL10 [M] (median), IC50, median

Compound: CCc1c2c(nn1C)CN(CCN1CCOCC1)CCCCn1c(C(=O)O)c(CCCOc3cccc4cc(F)ccc34)c3ccc(Cl)c-2c31 (single isomer, unassigned; enantiomer 1) [Example 142, 4-chloro-3-ethyl-7-{3-[(6-fluoronaphthalen-1-yl)oxy]propyl}-2-methyl-14-[2-(morpholin-4-yl)ethyl]-10,11,12,13,14,15-hexahydro-2H-pyrazolo[3′,4′:8,9][1,6]diazacycloundecino[10,11,1-hi]indole-8-carboxylic acid (Enantiomer 1)]
- IC50 (HMC-1-8 cells): 7.5e-07 M

Compound: CCc1c2c(nn1C)CCCCCCn1c(C(=O)O)c(CCCOc3cccc4cc(F)ccc34)c3ccc(Cl)c-2c31 (single isomer, unassigned; enantiomer 1) [Example 70, (+)-4-chloro-3-ethyl-7-{3-[(6-fluoronaphthalen-1-yl)oxy]propyl}-2-methyl-10,11,12,13,14,15-hexahydro-2H-pyrazolo[4′,3′:4,5]azacycloundecino[3,2,1-hi]indole-8-carboxylic acid-N-ethylethanamine salt (Enantiomer 1)]
- EC50 (SUDHL5 cells [1]; Homo sapiens, SU-DHL-5, 3 h): 710 nM
- EC50 (SUDHL10 cells [2]; Homo sapiens, SU-DHL10, 3 h): 1300 nM
- IC50 (SUDHL5 cells [3]; Homo sapiens, SU-DHL-5, 72 h): 1.5e-06 M
- IC50 (AMO-1 cells; Homo sapiens, AMO1, 72 h): 1.1e-06 M
- IC50 (SUDHL5 cells [4]; [8]): 1e-06 M
- IC50 (SUDHL10 cells [5]; [9]): 1.7e-06 M

Compound: Cc1c2c(nn1C)COCCCCn1c(C(=O)O)c(CCCOc3cccc4cc(F)ccc34)c3ccc(Cl)c-2c31 (single isomer, unassigned; enantiomer 1) [Example 16, (−)-4-chloro-7-{3-[(6-fluoronaphthalen-1-yl)oxy]propyl}-2,3-dimethyl-2,10,11,12,13,15-hexahydropyrazolo[4′,3′:9,10][1,6]oxazacycloundecino[8,7,6-hi]indole-8-carboxylic acid (Enantiomer 1)]
- EC50 (SUDHL5 cells [1]; Homo sapiens, SU-DHL-5, 3 h): 3600 nM
- EC50 (SUDHL10 cells [2]; Homo sapiens, SU-DHL10, 3 h): 5200 nM
- IC50 (SUDHL5 cells [3]; Homo sapiens, SU-DHL-5, 72 h): 1.5e-06 M
- IC50 (AMO-1 cells; Homo sapiens, AMO1, 72 h): 8.9e-06 M
- IC50 (SUDHL5 cells [4]; [8]): 3.3e-06 M
- IC50 (SUDHL10 cells [5]; [9]): 4.9e-06 M

Compound: CCc1c2c(nn1C)CN(CC(F)F)CCCCn1c(C(=O)O)c(CCCOc3cccc4cc(F)ccc34)c3ccc(Cl)c-2c31 (single isomer, unassigned; enantiomer 1) [Example 75, (+)-4-chloro-14-(2,2-difluoroethyl)-3-ethyl-7-{3-[(6-fluoronaphthalen-1-yl)oxy]propyl}-2-methyl-10,11,12,13,14,15-hexahydro-2H-pyrazolo[3′,4′:8,9][1,6]diazacycloundecino[10,11,1-hi]indole-8-carboxylic acid-N-ethylethanamine salt (Enantiomer 1)]
- EC50 (SUDHL5 cells [1]; listed as 075): 550 nM
- EC50 (SUDHL10 cells [2]; listed as 075): 3500 nM
- IC50 (SUDHL5 cells [3]; listed as 075): 1.6e-06 M
- IC50 (AMO-1 cells; listed as 075): 4.8e-06 M
- IC50 (SUDHL5 cells [4]; read-out: Cytotox SUDHL5 [M] (median), IC50, median, listed as 075): 9.1e-07 M
- IC50 (SUDHL10 cells [5]; read-out: Cytotox SUDHL10 [M] (median), IC50, median, listed as 075): 1.4e-06 M

Compound: CCc1c2c(nn1C)CN(CCC(C)(C)O)CCCCn1c(C(=O)O)c(CCCOc3cccc4cc(F)ccc34)c3ccc(Cl)c-2c31 (single isomer, unassigned; enantiomer 1) [Example 140, 4-chloro-3-ethyl-7-{3-[(6-fluoronaphthalen-1-yl)oxy]propyl}-14-(3-hydroxy-3-methylbutyl)-2-methyl-10,11,12,13,14,15-hexahydro-2H-pyrazolo[3′,4′:8,9][1,6]diazacycloundecino[10,11,1-hi]indole-8-carboxylic acid (Enantiomer 1)]
- IC50 (HMC-1-8 cells; 72 h): 1.4e-06 M

Second part, led by results:

- EC50 (SUDHL5 cells [1]): 5000 nM
- EC50 (SUDHL10 cells [2]): 4900 nM
- IC50 (SUDHL5 cells [3]): 3.1e-07 M
Compound: CCc1c2c(nn1C)COCC1(CCn3c(C(=O)O)c(CCCOc4cccc5cc(F)ccc45)c4ccc(Cl)c-2c43)CC1 [Example 111, (+)-4′-chloro-3′-ethyl-7′-{3-[(6-fluoronaphthalen-1-yl)oxy]propyl}-2′-methyl-2′,10′,11′,15′-tetrahydro-13′H-spiro[cyclopropane-1,12′-pyrazolo[4′,3′:9,10][1,6]oxazacycloundecino[8,7,6-hi]indole]-8′-carboxylic acid-N-ethylethanamine salt]
- IC50 (AMO-1 cells): 8.4e-06 M
- IC50 (SUDHL5 cells [4]; [6]): 6e-06 M
- IC50 (SUDHL10 cells [5]; [7]): 6.7e-06 M

- EC50 (SUDHL5 cells [1]; Homo sapiens, SU-DHL-5, 3 h): 730 nM
- EC50 (SUDHL10 cells [2]; Homo sapiens, SU-DHL10, 3 h): 2800 nM
- IC50 (SUDHL5 cells [3]; Homo sapiens, SU-DHL-5, 72 h): 8.8e-07 M
Compound: CCc1c2c(nn1C)COCC1(CCn3c(C(=O)O)c(CCCOc4cccc5ccccc45)c4ccc(Cl)c-2c43)CC1 (racemic) [Example 72, (rac)-4′-chloro-3′-ethyl-2′-methyl-7′-{3-[(naphthalen-1-yl)oxy]propyl}-2′,10′,11′,15′-tetrahydro-13′H-spiro[cyclopropane-1,12′-pyrazolo[4′,3′:9,10][1,6]oxazacycloundecino[8,7,6-hi]indole]-8′-carboxylic acid]
- IC50 (AMO-1 cells; Homo sapiens, AMO1, 72 h): 2.8e-06 M
- IC50 (SUDHL5 cells [4]; [8]): 1e-06 M
- IC50 (SUDHL10 cells [5]; [9]): 2.5e-06 M

- EC50 (SUDHL5 cells [1]; listed as 080): 490 nM
- EC50 (SUDHL10 cells [2]; listed as 080): 450 nM
- IC50 (SUDHL5 cells [3]; Homo sapiens, SU-DHL-5, 72 h): 2.2e-07 M
Compound: Cc1c2c(nn1C)COCC1CCC1Cn1c(C(=O)O)c(CCCOc3cccc4ccccc34)c3ccc(Cl)c-2c31 (single isomer, unassigned) [Example 80, 3-chloro-4,5-dimethyl-15-{3-[(naphthalen-1-yl)oxy]propyl}-5,7,9,9a,10,11,11a,12-octahydrocyclobuta[3,4]pyrazolo[4′,3′:9,10][1,6]oxazacycloundecino[8,7,6-hi]indole-14-carboxylic acid]
- IC50 (AMO-1 cells; Homo sapiens, AMO1, 72 h): 1.9e-06 M
- IC50 (SUDHL5 cells [4]; read-out: Cytotox SUDHL5 [M] (median), IC50, median, listed as 080): 5.8e-07 M
- IC50 (SUDHL10 cells [5]; read-out: Cytotox SUDHL10 [M] (median), IC50, median, listed as 080): 8.1e-07 M

- EC50 (SUDHL5 cells [1]; Homo sapiens, SU-DHL-5, 3 h): 3000 nM
- EC50 (SUDHL10 cells [2]; Homo sapiens, SU-DHL10, 3 h): 3600 nM
- IC50 (SUDHL5 cells [3]; Homo sapiens, SU-DHL-5, 72 h): 1.6e-06 M
Compound: CCc1c2c(nn1C)CN(CCC(C)(C)O)CCCCn1c(C(=O)O)c(CCCOc3cccc4cc(F)ccc34)c3ccc(Cl)c-2c31 (single isomer, unassigned; enantiomer 2) [Example 141, 4-chloro-3-ethyl-7-{3-[(6-fluoronaphthalen-1-yl)oxy]propyl}-14-(3-hydroxy-3-methylbutyl)-2-methyl-10,11,12,13,14,15-hexahydro-2H-pyrazolo[3′,4′:8,9][1,6]diazacycloundecino[10,11,1-hi]indole-8-carboxylic acid (Enantiomer 2)]
- IC50 (AMO-1 cells; Homo sapiens, AMO1, 72 h): 2.4e-06 M
- IC50 (SUDHL5 cells [4]; [8]): 2.6e-06 M
- IC50 (SUDHL10 cells [5]; [9]): 3.6e-06 M

- EC50 (SUDHL5 cells [1]): 2100 nM
- EC50 (SUDHL10 cells [2]): 3400 nM
- IC50 (SUDHL5 cells [3]): 4.1e-06 M
Compound: CCc1c2c(nn1C)CN(C)CC(F)(F)CCn1c(C(=O)O)c(CCCOc3cccc4cc(F)ccc34)c3ccc(Cl)c-2c31 (single isomer, unassigned) [Example 128, 4-chloro-3-ethyl-12,12-difluoro-7-{3-[(6-fluoronaphthalen-1-yl)oxy]propyl}-2,14-dimethyl-10,11,12,13,14,15-hexahydro-2H-pyrazolo[3′,4′:8,9][1,6]diazacycloundecino[10,11,1-hi]indole-8-carboxylic acid]
- IC50 (AMO-1 cells): 6.5e-06 M
- IC50 (SUDHL5 cells [4]; [6]): 2.3e-06 M
- IC50 (SUDHL10 cells [5]; [7]): 3.6e-06 M

- EC50 (SUDHL5 cells [1]; Homo sapiens, SU-DHL-5, 3 h): 2400 nM
- EC50 (SUDHL10 cells [2]): 4600 nM
- IC50 (SUDHL5 cells [3]): 2.1e-06 M
Compound: CCc1c2c(nn1C)COCC1CC1Cn1c(C(=O)O)c(CCCOc3cccc4cc(F)ccc34)c3ccc(Cl)c-2c31 (racemic) [Example 106, (rac)-3-chloro-4-ethyl-14-{3-[(6-fluoronaphthalen-1-yl)oxy]propyl}-5-methyl-5,7,9a,10,10a,11-hexahydro-9H-cyclopropa[3,4]pyrazolo[4′,3′:9,10][1,6]oxazacycloundecino[8,7,6-hi]indole-13-carboxylic acid]
- IC50 (AMO-1 cells): 8.1e-06 M
- IC50 (SUDHL5 cells [4]; [6]): 2.8e-06 M
- IC50 (SUDHL10 cells [5]; [7]): 5.8e-06 M
